{"source": "paper PMC2594009", "about": "(Structure (London, England : 1993), 2008)", "key": {"[1]": {"test_system": "S31N AM2", "format": "cell-based, influenza A virus", "details": "pH 5.5"}, "[2]": {"test_system": "L26F AM2", "format": "cell-based, influenza A virus", "details": "pH 5.5"}}, "note": "“And” between values parts separate entries of the source, which are not always exact repeats. Identical values can stand only once. “Also recorded” adds a separate entry of the source.", "data": [{"compound": "NC12CC3CC(CC(C3)C1)C2", "note": "[amantadine]", "values": [{"measurement": "inhibition of the inward current", "setting": "[1]", "result": "30% and 30.7 ± 1.8%"}, {"measurement": "reversibility of inhibition after removal of the drug", "setting": "[1]", "result": "immediately reversed; also recorded: highly reversible"}, {"measurement": "inhibition of the inward current", "setting": "[2]", "result": "47% and 46.8 ± 0.7%"}, {"measurement": "reversibility of inhibition after removal of the drug", "setting": "[2]", "result": "reversibly inhibited; also recorded: readily reversible"}]}]}
